In PMC4232510, “Identification of Functionally Important Residues of the Rat P2X4 Receptor by Alanine Scanning Mutagenesis of the Dorsal Fin and Left Flipper Domains” (PLoS ONE, 2014):
Like-named read-outs stand apart in the source and are kept apart here.

Key:
rP2X4R D283A mutant = molecular target: T1, rP2X4R D283A mutant (Rattus norvegicus, UniProt P51577, D283A); assay: whole-cell patch clamp, HEK293T cells expressing mutant; type: cell-based
T1 construct: expressed in transfected cells; host or cells: HEK293T
T1 sequence (P51577 1-388 D283A): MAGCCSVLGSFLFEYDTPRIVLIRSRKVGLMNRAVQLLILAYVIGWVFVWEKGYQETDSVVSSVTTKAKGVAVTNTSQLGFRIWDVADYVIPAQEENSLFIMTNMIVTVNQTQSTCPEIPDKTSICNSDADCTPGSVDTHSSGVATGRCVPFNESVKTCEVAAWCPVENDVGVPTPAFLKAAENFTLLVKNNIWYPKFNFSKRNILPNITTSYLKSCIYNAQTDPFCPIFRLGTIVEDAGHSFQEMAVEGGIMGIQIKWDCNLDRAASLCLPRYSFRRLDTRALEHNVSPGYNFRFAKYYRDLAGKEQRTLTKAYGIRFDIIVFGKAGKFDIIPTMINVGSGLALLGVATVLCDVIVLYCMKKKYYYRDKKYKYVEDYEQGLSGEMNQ

P2X4R I205A = test system: P2X4R I205A; parameters: method as in PMID 24943126; conditions: cited from earlier work
P2X4R L206A = test system: P2X4R L206A; parameters: method as in PMID 24943126; key: n.f.: non-functional mutants; ↑: mutant with significant increased EC50 in comparison to WT (values represent fold increase); ≈: close to WT receptor; D: affected time-constant of the desensitizing current response; conditions: cited from earlier work
P2X4R L214A = conditions: cited from earlier work
P2X2R D277A = test system: P2X2R D277A; parameters: method as in PMID 18194442; key: n.f.: non-functional mutants; ↑: mutant with significant increased EC50 in comparison to WT (values represent fold increase); ≈: close to WT receptor; D: affected time-constant of the desensitizing current response; conditions: cited from earlier work
P2X4R D280A = test system: P2X4R D280A; parameters: method as in PMID 17663752, PMID 15632318; conditions: cited from earlier work
P2X4R N287A = test system: P2X4R N287A; parameters: method as in PMID 17663752, PMID 15632318; key: n.f.: non-functional mutants; ↑: mutant with significant increased EC50 in comparison to WT (values represent fold increase); ≈: close to WT receptor; D: affected time-constant of the desensitizing current response; conditions: cited from earlier work
P2X3R S275A = test system: P2X3R S275A; parameters: method as in PMID 21879712; key: n.f.: non-functional mutants; ↑: mutant with significant increased EC50 in comparison to WT (values represent fold increase); ≈: close to WT receptor; D: affected time-constant of the desensitizing current response; conditions: cited from earlier work
[1] = 100 µM ATP 60 s, biexponential fit

SMILES	τdes1 (rP2X4R D283A mutant; [1]) [s]	τdes2 (rP2X4R D283A mutant; [1]) [s]	Imax (rP2X4R D283A mutant; 100–1000 µM ATP) [nA]	Imax+IVM (rP2X4R D283A mutant; ATP after 3 µM IVM 4-6 min) [nA]	A2 /(A1+A2) (rP2X4R D283A mutant; contribution of τdes2, 100 µM ATP 60 s) [%]	τoff +IVM (rP2X4R D283A mutant; decay after removal of 1 or 3 µM ATP, 3 µM IVM) [s]	EC50 (rP2X4R D283A mutant; naïve receptors, 2–5 s application) [µM]	τdes (rP2X4R D283A mutant; weighted, 100 µM ATP 60 s) [s]	fold increase of EC50 for ATP in comparison to WT (P2X4R I205A)	change in EC50 for ATP (P2X4R L206A)	fold increase of EC50 for ATP in comparison to WT (P2X4R L214A; ref 41) [x]	fold increase of EC50 for ATP in comparison to WT (P2X4R L214A; ref 49) [x]	change in EC50 for ATP (P2X2R D277A)	fold increase of EC50 for ATP in comparison to WT (P2X4R D280A)	change in EC50 for ATP (P2X4R N287A)	change in desensitization (P2X3R S275A)	Fold incr. Imax (rP2X4R D283A mutant; 3 µM IVM 4-6 min vs IVM-untreated) [fold]
Nc1ncnc2c1ncn2[C@@H]1O[C@H](COP(=O)(O)OP(=O)(O)OP(=O)(O)O)[C@@H](O)[C@H]1O [ATP]	2.2 ± 0.6	17.1 ± 5.8	2.2 ± 0.3	3.1 ± 0.3	59 ± 10	16 ± 1.7	7.3 ± 3.4	9.1 ± 1.5	I205A: ↑2,5x[49]	L206A: ≈[49]	8	3	D277A:: ≈[56]	D280A ↑>100x[10], [52]	N287A: ≈[10], [52]	S275A: D[55]	
CC[C@H](C)[C@H]1O[C@]2(CC[C@@H]1C)C[C@@H]1C[C@@H](C/C=C(\C)[C@@H](O[C@H]3C[C@H](OC)[C@@H](O[C@H]4C[C@H](OC)[C@@H](O)[C@H](C)O4)[C@H](C)O3)[C@@H](C)/C=C/C=C3\CO[C@@H]4[C@H](O)C(C)=C[C@@H](C(=O)O1)[C@]34O)O2 [IVM, ivermectin]																	1.4 ± 0.1
